19 molecules from ChEMBL document CHEMBL1201862, “PubChem BioAssay data set” (2004) can be followed below.

Active and inactive are the calls of the source. Peptide text beside a SMILES is read from it. Where only a bound is given, the exact number is not on record here.

Among the targets are Cytochrome P450 2D6 (Homo sapiens, UniProt P10635); Cytochrome P450 3A4 (Homo sapiens, UniProt P08684); Cytochrome P450 2C9 (Homo sapiens, UniProt P11712).
The target in another test is Cytochrome P450 2C19 (Homo sapiens, UniProt P33261). Kind of test: Cytochrome panel assay with activity outcomes. Panel member name: p450-cyp2c19 Compounds with AC50 equal or less than 10 uM are considered active. The format is functional. Particulars: read-out: AC50.
Test [1] has as its system Streptococcus sp. 'group A'. Kind of test: Streptococcus pyogenes SK(-)GAS viability under kanamycin – luminescence, BacTiterGlo, confirmation, counter-screen for streptokinase expression inhibitor project, dose response (AID 1900). The format is functional, organism-based. (In general: The purpose of a counterscreen is to sort out artefacts and off-target activity.)
A further test deals with Streptococcus. Kind of test: GAS UMAA2166 growth inhibition – luminescence, BacTiterGlo, counter-screen for streptokinase expression inhibitor project, dose response (AID 1915).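 Further: potency for reduction of bacterial viability or growth.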 The format is functional, organism-based.
In another test the target is T1, Streptokinase A (Streptococcus pyogenes serotype M1, UniProt P10520).
T1 sequence (P10520 whole entry): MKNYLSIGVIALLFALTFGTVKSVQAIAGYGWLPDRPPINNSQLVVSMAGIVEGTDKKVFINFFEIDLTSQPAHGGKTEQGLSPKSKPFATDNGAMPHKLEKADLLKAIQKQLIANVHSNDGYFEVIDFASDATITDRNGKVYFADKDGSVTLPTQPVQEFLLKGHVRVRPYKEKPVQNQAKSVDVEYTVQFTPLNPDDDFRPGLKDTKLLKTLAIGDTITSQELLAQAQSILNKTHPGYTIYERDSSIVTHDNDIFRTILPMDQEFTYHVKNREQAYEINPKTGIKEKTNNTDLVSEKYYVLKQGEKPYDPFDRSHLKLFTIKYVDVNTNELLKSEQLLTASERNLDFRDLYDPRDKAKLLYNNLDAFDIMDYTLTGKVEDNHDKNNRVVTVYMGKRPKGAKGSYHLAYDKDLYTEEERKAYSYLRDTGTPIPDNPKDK
Briefly: viability-normalized secreted streptokinase activity reduction – plasminogen activation absorbance, OD405, dose response (AID 1914).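 Further: secreted streptokinase activity via plasminogen activation per viability signal from cell pellet.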 The format is functional, Streptococcus pyogenes M1 GAS.

Another test has as its target T2, Cytochrome P450 1A2 (Homo sapiens, UniProt P05177).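 Further: PubChem cytochrome P450 panel assay, CYP1A2 panel member.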
T2 sequence (P05177 whole entry): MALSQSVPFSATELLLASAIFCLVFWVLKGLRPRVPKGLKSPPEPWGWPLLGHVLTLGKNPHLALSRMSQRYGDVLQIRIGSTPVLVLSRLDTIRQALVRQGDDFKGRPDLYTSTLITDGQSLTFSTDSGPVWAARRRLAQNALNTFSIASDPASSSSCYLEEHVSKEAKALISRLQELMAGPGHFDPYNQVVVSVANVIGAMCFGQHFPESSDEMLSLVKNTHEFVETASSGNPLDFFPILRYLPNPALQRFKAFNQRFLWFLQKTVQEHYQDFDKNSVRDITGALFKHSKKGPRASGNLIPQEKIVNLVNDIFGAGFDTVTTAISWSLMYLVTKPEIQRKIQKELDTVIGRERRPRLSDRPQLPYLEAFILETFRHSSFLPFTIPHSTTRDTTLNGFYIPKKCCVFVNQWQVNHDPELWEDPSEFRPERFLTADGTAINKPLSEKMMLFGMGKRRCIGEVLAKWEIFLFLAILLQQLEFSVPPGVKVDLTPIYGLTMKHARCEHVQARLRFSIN

Test [2] is described as follows: alpha-synuclein stem-loop luciferase translation blockers – H4 neuroglioma cells, luminescence, confirmation (AID 1988). It counts as functional, cell-based.
Test [3] is described as follows: luciferase reporter signal suppression in cells – H4 neuroglioma cells, luminescence, dose response (AID 1990). It counts as functional, cell-based. For orientation: A reporter such as luciferase makes a cellular process visible.

Cytochrome P450 3A4, sequence (P08684 whole entry): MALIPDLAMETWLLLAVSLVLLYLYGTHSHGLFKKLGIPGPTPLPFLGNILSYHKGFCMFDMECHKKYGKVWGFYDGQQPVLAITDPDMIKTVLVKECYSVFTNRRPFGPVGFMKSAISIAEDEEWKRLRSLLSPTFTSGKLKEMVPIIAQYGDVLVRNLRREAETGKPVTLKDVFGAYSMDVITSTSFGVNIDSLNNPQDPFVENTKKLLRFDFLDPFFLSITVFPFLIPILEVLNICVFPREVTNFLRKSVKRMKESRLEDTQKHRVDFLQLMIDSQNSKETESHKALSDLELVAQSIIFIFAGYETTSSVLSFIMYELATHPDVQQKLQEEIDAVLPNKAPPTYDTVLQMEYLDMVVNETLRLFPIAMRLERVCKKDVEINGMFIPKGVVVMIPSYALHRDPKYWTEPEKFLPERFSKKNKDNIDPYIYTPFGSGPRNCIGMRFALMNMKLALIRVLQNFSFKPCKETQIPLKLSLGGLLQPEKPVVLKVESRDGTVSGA
Cytochrome P450 2D6, sequence (P10635 whole entry): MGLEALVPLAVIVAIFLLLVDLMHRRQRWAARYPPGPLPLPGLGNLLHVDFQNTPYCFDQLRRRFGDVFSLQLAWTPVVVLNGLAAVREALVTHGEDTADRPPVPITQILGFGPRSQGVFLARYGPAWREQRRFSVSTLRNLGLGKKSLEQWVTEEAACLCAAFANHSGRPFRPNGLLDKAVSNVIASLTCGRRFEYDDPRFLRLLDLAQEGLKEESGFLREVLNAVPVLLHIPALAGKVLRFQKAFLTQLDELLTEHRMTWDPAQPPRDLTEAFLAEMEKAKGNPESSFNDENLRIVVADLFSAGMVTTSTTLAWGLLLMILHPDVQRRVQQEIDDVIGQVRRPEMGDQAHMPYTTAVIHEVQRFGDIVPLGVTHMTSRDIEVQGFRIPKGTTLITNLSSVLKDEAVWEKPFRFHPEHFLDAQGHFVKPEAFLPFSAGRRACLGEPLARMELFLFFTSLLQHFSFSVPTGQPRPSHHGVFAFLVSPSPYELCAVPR
Cytochrome P450 2C19, sequence (P33261 whole entry): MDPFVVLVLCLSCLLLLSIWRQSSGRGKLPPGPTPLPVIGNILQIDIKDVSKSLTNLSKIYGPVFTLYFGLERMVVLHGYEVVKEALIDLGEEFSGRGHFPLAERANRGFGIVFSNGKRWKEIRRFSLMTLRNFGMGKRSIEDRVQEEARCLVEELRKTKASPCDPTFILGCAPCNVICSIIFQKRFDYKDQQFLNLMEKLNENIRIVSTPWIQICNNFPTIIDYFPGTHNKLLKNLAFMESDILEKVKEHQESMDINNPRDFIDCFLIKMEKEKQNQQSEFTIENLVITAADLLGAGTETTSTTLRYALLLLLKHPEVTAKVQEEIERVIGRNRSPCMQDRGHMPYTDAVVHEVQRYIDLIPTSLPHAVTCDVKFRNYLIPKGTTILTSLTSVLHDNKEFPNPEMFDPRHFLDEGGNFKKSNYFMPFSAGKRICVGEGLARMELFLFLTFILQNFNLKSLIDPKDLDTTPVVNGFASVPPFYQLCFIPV
Cytochrome P450 2C9, sequence (P11712 whole entry): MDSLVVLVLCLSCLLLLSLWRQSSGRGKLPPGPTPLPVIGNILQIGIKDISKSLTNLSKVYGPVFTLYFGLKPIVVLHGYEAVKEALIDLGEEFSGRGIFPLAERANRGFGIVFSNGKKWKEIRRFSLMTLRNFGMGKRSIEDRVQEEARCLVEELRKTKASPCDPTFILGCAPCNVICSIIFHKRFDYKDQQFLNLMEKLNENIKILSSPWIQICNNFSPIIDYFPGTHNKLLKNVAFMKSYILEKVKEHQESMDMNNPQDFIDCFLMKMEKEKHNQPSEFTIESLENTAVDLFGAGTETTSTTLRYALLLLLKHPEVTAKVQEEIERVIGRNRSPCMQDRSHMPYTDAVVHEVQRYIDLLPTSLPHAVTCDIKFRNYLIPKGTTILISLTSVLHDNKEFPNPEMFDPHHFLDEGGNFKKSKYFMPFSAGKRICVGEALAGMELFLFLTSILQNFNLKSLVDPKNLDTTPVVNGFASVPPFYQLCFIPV

Consider `Cc1cccc(NC2=NN=C(c3ccc4c(c3)OCCO4)CS2)c1`, for which the AC50 was 5.01 µM (inconclusive) on Cytochrome P450 2C19, 17.8 µM (inconclusive) on Cytochrome P450 2D6, 2.82 µM (inconclusive) at Cytochrome P450 3A4 and 5.62 µM (inconclusive) on Cytochrome P450 2C9.
As to `O=C(NC1CCCc2ccccc21)C1CCN(S(=O)(=O)N2CCCCCC2)CC1` (stereo not given), the AC50 at Cytochrome P450 2D6 was 20 µM (inconclusive); on Cytochrome P450 2C9, 31.6 µM (inconclusive).
Take `COc1cnc(-c2ccccn2)nc1Oc1ccccc1Cl`: the EC50 (in [1]; with Streptococcus; on Streptokinase A) was > 150 µM (not active) each time.
In the case of `O=C(c1cccc(F)c1)N1CCC[C@@]2(CCN(Cc3ccncc3)C2)C1`, the AC50 on Cytochrome P450 2D6 was 25.1 µM (inconclusive); at Cytochrome P450 2C9, 20 µM (inconclusive).
With `O=C1c2ccccc2CCC12N=NCC2c1ccc(Cl)cc1` (stereo not given), the AC50 at Cytochrome P450 2D6 was 28.2 µM (inconclusive); at Cytochrome P450 3A4, 39.8 µM (inconclusive); on Cytochrome P450 1A2, 20 µM (inconclusive).
With `CC(C)Cc1csc(NC(=O)c2ccc(Br)cc2)c1C(=O)O`, the EC50 in test [1] is 3.59 µM (active); in the test with Streptococcus it was 6.59 µM (active); on Streptokinase A, > 150 µM (not active).
`COC(=O)c1nc(NC(=S)NC(=O)c2cccs2)sc1C`: the figures for the EC50 (in test [1]; in the test with Streptococcus; on Streptokinase A) were 9.59 µM (active), > 150 µM (not active) and > 150 µM (not active), respectively.
`O=C(CCCCCNC(=O)c1ccccc1)N=Nc1c(O)[nH]c2c(Br)cc(Br)cc12`: the EC50 was 6.76 µM (active) in [1], 28.4 µM (active) with Streptococcus and > 150 µM (not active) on Streptokinase A.
Regarding `Fc1ccc(-n2cc(-c3ccccc3)c3c(NN4CCOCC4)ncnc32)cc1`, the concentration for a half-maximal effect (EC50) in test [2] and in test [3] was > 120 µM (not active) each time.
In the case of `FC(F)(F)c1nc2nc(Cl)c(Cl)nc2n1CCCN1CCOCC1`, the AC50 was 3.98 µM (inconclusive) on Cytochrome P450 2D6, 5.01 µM (inconclusive) at Cytochrome P450 3A4 and 3.16 µM (inconclusive) at Cytochrome P450 1A2.
As to `CCc1ccc(NC(=S)N2CCN(c3cccc(C(F)(F)F)c3)CC2)cc1`, the AC50 on Cytochrome P450 2C19 is 4.47 µM (inconclusive); at Cytochrome P450 2D6, 0.01 µM (inconclusive).
Turning to `O=C(c1nn(Cc2ccccc2)c(=O)c2ccccc12)N1CCN(C/C=C/c2ccccc2)CC1`, the AC50 on Cytochrome P450 2D6 is 17.8 µM (inconclusive); at Cytochrome P450 1A2 it was 20 µM (inconclusive).
For the molecule `O=c1c(CCc2ccccc2)nc2cncnc2n1-c1ccccc1`, the figures for the AC50 at Cytochrome P450 2D6, at Cytochrome P450 3A4 and at Cytochrome P450 2C9 were 25.1 µM (inconclusive), 5.01 µM (inconclusive) and 25.1 µM (inconclusive), respectively.
As for `CCCCc1ccc(NC(=O)NCc2ccccn2)cc1`, the EC50 (in test [1]; in the test on Streptococcus; at Streptokinase A) was > 150 µM (not active) each time.
For the molecule `COCC(=O)N1CCC2(CCCN(Cc3ccncc3)C2)CC1`, the AC50 on Cytochrome P450 2D6 was 15.8 µM (inconclusive); on Cytochrome P450 3A4, 12.6 µM (inconclusive).
In the case of `COc1ccc(C(=O)OC2CCN(c3ncc(C(F)(F)F)cc3Cl)CC2)cc1`, the EC50 in [1] was 66.5 µM (active); in the test on Streptococcus it was 39.7 µM (active); at Streptokinase A, > 150 µM (not active).
In the case of `C/C(=N\NC(=O)c1ccc(O)cc1)c1cccc(NC(=O)c2ccccc2C)c1`, the EC50 (in [1]; with Streptococcus; at Streptokinase A) was > 150 µM (not active) in each case.
With `COC(=O)C(CC(C)C)NC(=O)C(N)Cc1ccccc1` (stereo not drawn) (H-Phe-Leu-OMe; configuration not given here), the AC50 on Cytochrome P450 2C19 was 17.8 µM (inconclusive); at Cytochrome P450 2D6, 15.8 µM (inconclusive).
Consider `CCN(CC)CCNC(=O)c1cc(Br)c(N)cc1OC` [BROMOPRIDE], for which the AC50 on Cytochrome P450 2D6 was 5.01 µM (inconclusive); at Cytochrome P450 1A2, 10 µM (inconclusive).

The term AC50 denotes the concentration giving half of the maximal activity seen. As usually defined, the EC50 is the concentration needed to bring the measured effect to its halfway point.
